Assay results as given in ChEMBL document CHEMBL3108776, “Discovery of Small Molecule RIP1 Kinase Inhibitors for the Treatment of Pathologies Associated with Necroptosis” (ACS Med Chem Lett, 2013).
Values after ≈ are worked out from the molar mass of the structure shown.

Assays:
[1] = biological target: T1, Receptor-interacting serine/threonine-protein kinase 1 (Homo sapiens, UniProt Q13546); assay: Inhibition of human N-terminal His-GST-TEV-fused RIP1 kinase domain (1 to 375) autophosphorylation expressed in baculovirus infected insect Sf9 cells after 4 hrs by ADP-Glo luminescence assay
T1 sequence (Q13546 whole entry): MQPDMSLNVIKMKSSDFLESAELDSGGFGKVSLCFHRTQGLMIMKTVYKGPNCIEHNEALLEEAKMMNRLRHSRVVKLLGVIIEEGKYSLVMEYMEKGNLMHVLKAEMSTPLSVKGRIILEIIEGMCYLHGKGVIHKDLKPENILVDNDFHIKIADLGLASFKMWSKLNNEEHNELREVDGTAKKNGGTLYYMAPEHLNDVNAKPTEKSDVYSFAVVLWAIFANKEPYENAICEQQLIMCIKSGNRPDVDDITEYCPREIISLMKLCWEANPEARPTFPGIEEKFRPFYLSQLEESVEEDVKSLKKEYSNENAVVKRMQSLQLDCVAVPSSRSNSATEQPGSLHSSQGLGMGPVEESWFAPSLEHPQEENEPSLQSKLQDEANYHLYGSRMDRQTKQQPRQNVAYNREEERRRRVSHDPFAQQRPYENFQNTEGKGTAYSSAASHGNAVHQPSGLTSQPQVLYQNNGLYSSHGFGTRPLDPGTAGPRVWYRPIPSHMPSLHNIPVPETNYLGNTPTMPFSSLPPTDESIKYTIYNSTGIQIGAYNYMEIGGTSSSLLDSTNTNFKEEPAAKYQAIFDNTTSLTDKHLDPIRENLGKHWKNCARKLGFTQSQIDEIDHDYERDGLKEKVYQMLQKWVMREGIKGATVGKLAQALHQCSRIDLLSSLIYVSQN

[2] = biological target: T1, Receptor-interacting serine/threonine-protein kinase 1; assay: Displacement of (14-(2-{[3-({2-{[4-(cyanomethyl)phenyl]amino}-6-[(5-cyclopropyl-1H-pyrazol-3-yl)amino]-4-pyrimidinyl}amino)propyl]amino}-2-oxoethyl)-16,16,18,18-tetramethyl-6,7,7a,8a,9,10,16,18-octahydrobenzo[2'',3'']indolizino[8'',7'':5',6']pyrano[3',2':3,4]pyrido[1,2-a]indol-5-ium-2-sulfonate from human N-terminal His-GST-TEV-fused RIP1 kinase domain (1 to 375) expressed in baculovirus infected insect Sf9 cells preincubated for 10 mins followed by fluorescent ligand addition measured after 15 mins by fluorescence polarization assay
Mus musculus [3] = assay: Antiinflammatory activity in mouse TNFalpha-induced lethal shock model assessed as protection from body temperature loss at 2 mg/kg, po administered 15 mins prior to TNFalpha challenge measured over 7 hrs relative to TNFalpha-treated control; format: functional
[4] = Permeability of the compound; format: ADME; details: not told; read-out: permeability
[5] = AUC in C57BL/6 mouse at 2 mg/kg, po measured at 4 hrs; format: ADME, organism-based; parameters: dose 2 mg/kg, route oral; details: plasma
Mus musculus [6] = assay: Antiinflammatory activity in po dosed mouse TNFalpha-induced lethal shock model assessed as protection from body temperature loss administered 15 mins prior to TNFalpha challenge measured over 7 hrs; format: functional, organism-based
[7] = Fraction unbound in mouse; format: ADME, organism-based; details: in vivo
[8] = Solubility of the compound; format: physicochemical
Mus musculus [9] = assay: Antiinflammatory activity in mouse TNFalpha-induced lethal shock model assessed as protection from body temperature loss at 0.2 mg/kg, po administered 15 mins prior to TNFalpha challenge measured over 7 hrs relative to TNFalpha-treated control; format: functional
Mus musculus [10] = assay: Antiinflammatory activity in mouse TNFalpha-induced lethal shock model assessed as protection from body temperature loss at 20 mg/kg, po administered 15 mins prior to TNFalpha challenge measured over 7 hrs relative to TNFalpha-treated control; format: functional
[11] = Cmax in C57BL/6 mouse at 2 mg/kg, po measured at 4 hrs; format: ADME, organism-based; parameters: dose 2 mg/kg, route oral; details: in vivo

Structure (SMILES)	IC50 [1]	IC50 [2]	other results
NC(=O)c1cccc(-c2cnc3[nH]cc(-c4cccc(NC(=O)Nc5cc(C(F)(F)F)ccc5F)c4)c3c2)c1	10 nM	16 nM	
Nc1nccc2c(-c3ccc(NC(=O)Nc4ccc(F)c(C(F)(F)F)c4)cc3)cccc12	10 nM	320 nM	
COc1cccc(NC(=O)Nc2cccc(-c3c[nH]c4ncc(-c5ccccc5)cc34)c2)c1	6.3 nM	32 nM	
CCc1cccc(NC(=O)Nc2ccc(-c3coc4ncnc(N)c34)cc2)c1	10 nM	25 nM	
O=C(Nc1cccc(-c2c[nH]c3ncc(-c4ccccc4)cc23)c1)NC1CCCC1	500 nM	2000 nM	
Nc1ccc(-c2cnc3[nH]cc(-c4cccc(NC(=O)Nc5cc(C(F)(F)F)ccc5F)c4)c3c2)cc1	50 nM	32 nM	
O=C(Nc1cccc(-c2c[nH]c3ncc(-c4ccccc4)cc23)c1)Nc1cccc([N+](=O)[O-])c1	16 nM	16 nM	
CC(C)(C)c1cc(NC(=O)Nc2ccc(-c3coc4ncnc(N)c34)cc2)no1	16 nM	32 nM	
CC(=O)c1cccc(NC(=O)Nc2cccc(-c3c[nH]c4ncc(-c5ccccc5)cc34)c2)c1	10 nM	13 nM	
Nc1ncnc2occ(-c3ccc(NC(=O)Nc4ccc(F)c(C(F)(F)F)c4)cc3)c12	500 nM	160 nM	
O=C(Nc1ccccc1)Nc1cccc(-c2c[nH]c3ncc(-c4ccccc4)cc23)c1	400 nM	1300 nM	
Nc1nccc2c(-c3ccc(NC(=O)Nc4cc(C(F)(F)F)ccc4Cl)cc3)cccc12	630 nM	3200 nM	
Nc1nccc2c(-c3ccc(NC(=O)Nc4cccc(C(F)(F)F)c4)cc3)cccc12	25 nM	20 nM	
Nc1ncnc2occ(-c3ccc(NC(=O)Nc4cccc(Cl)c4)cc3)c12	200 nM	160 nM	
Nc1ncnc2occ(-c3ccc(NC(=O)Nc4cc(C(F)(F)F)ccc4F)cc3)c12 [GW770249X]			Activity (Mus musculus [3]): 22%; Papp [4]: 21 ×10⁻⁶ cm/s; AUC at 4 h [5]: 14000 ng·h/mL; Activity (Mus musculus [6]): Dose-dependent effect; Fu [7]: 0.04%; solubility [8]: 13 µM (≈ 5.61 µg/mL); Activity (Mus musculus [9]): 15%; Activity (Mus musculus [10]): 77%; Cmax [11]: 1100 ng/mL
O=C(Nc1cccc(-c2c[nH]c3ncc(-c4ccccc4)cc23)c1)Nc1cc(C(F)(F)F)ccc1F	80 nM	200 nM	
Nc1ncnc2occ(-c3ccc(NC(=O)Nc4ccc5ccccc5c4)cc3)c12		100 nM	
Nc1nccc2c(-c3ccc(NC(=O)Nc4cc(F)cc(C(F)(F)F)c4)cc3)cccc12	25 nM	160 nM	
Nc1ncnc2occ(-c3ccc(NC(=O)Nc4cc(C(F)(F)F)ccc4Cl)cc3)c12	2500 nM	> 10000 nM	
O=C(Nc1cccc(-c2c[nH]c3ncc(-c4ccccc4)cc23)c1)Nc1cccc(C(F)(F)F)c1	32 nM	32 nM	

Further lines, with some results ahead:

IC50 [1]	IC50 [2]	Structure (SMILES)	other results
6 nM	16 nM	O=C(Nc1cccc(-c2c[nH]c3ncc(-c4cn[nH]c4)cc23)c1)Nc1cc(C(F)(F)F)ccc1F	
32 nM	320 nM	Nc1ncnc2occ(-c3ccc(NC(=O)Nc4cc(C(F)(F)F)cc(C(F)(F)F)c4)cc3)c12 [GW795486X]	
4000 nM	> 10000 nM	Nc1nccc2c(-c3ccc(NC(=O)Nc4cccc(C(F)(F)F)c4F)cc3)cccc12	
63 nM	130 nM	Nc1ncnc2occ(-c3ccc(NC(=O)Nc4cc(F)cc(C(F)(F)F)c4)cc3)c12	
200 nM	250 nM	Nc1ncnc2occ(-c3ccc(NC(=O)Nc4cccc(C(F)(F)F)c4F)cc3)c12	
160 nM	40 nM	Nc1nccc2c(-c3ccc(NC(=O)Nc4ccc(Cl)c(C(F)(F)F)c4)cc3)cccc12	
32 nM	160 nM	Nc1ncnc2occ(-c3ccc(NC(=O)Nc4ccc(Cl)c(C(F)(F)F)c4)cc3)c12	
4 nM	7.9 nM	O=C(Nc1cccc(-c2c[nH]c3ncc(-c4cccnc4)cc23)c1)Nc1cc(C(F)(F)F)ccc1F	
10 nM	3.2 nM	CCS(=O)(=O)c1ccc(-c2cnc3[nH]cc(-c4cccc(NC(=O)Nc5cc(C(F)(F)F)ccc5F)c4)c3c2)cc1	
10 nM	20 nM	Nc1ncnc2occ(-c3ccc(NC(=O)Nc4cccc(C(F)(F)F)c4)cc3)c12 [GW795493X]	
130 nM	13 nM	Nc1nccc2c(-c3ccc(NC(=O)Nc4cc(C(F)(F)F)ccc4F)cc3)cccc12	
10 nM	63 nM	CS(=O)(=O)c1cccc(-c2cnc3[nH]cc(-c4cccc(NC(=O)Nc5cc(C(F)(F)F)ccc5F)c4)c3c2)c1	
